Test results taken from patent EP4755881A1 (Wuhan Createrna Science and Technology Co., Ltd., priority 2023, dated 2025).

molecular target: hLPAR1 (human lysophosphatidic acid receptor 1, Accession No.: NM_001401.4) (Homo sapiens, UniProt Q92633); experiment: cell-based; details: LPAR1 inhibitory activity IC50, Table 1; FLIPR method, CHO-K1 cells overexpressing hLPAR1
Method: The antagonist properties of the compounds in the present disclosure were determined using the FLIPR (Fluorometric Imaging Plate Reader) method in CHO-K1 cells (Chinese Hamster Ovary cells K1, ATCC) overexpressing hLPAR1 (human lysophosphatidic acid receptor 1, Accession No.: NM_001401.4).
CHO-K1 cells stably expressing hLPAR1 were placed in a cell culture incubator at 37°C with 5% CO2 and cultured in F-12 medium containing 10% FBS (fetal bovine serum, Gibco, 10099-141), 1% penicillin-streptomycin (Gibco, 15140-122), and 0.4 mg/mL Hygromycin B (Gibco, 10687010). 18-24 hours before the FLIPR experiment, the cells were seeded into a 96-well plate at a density of 250,000 cells/mL (25,000 cells/well) and incubated overnight in the cell culture incubator. On the day of the experiment, the medium was removed, and the cells were washed with FLIPR buffer (2.5 mM probenecid (Thermo, P36400), 1.3 mM CaCl2, 3.3 mM Na2CO3, 1 mM MgSO4, 20 mM HEPES (Invitrogen, 15630080), 1× HBSS (Invitrogen, 14065056), 0.1% BSA (BioSharp, 70080030)). 75 µL of […] Fluo-4 AM fluorescent dye (Thermo, F14202) was added to each well and incubated for 1.0 hour at 37°C for dye loading. The 96-well plate was then washed once with buffer, and 50 µL of buffer containing the test compound or vehicle was added to each well, followed by incubation at room temperature for 30 min. The cell plate was then placed into the FLIPR for baseline fluorescence measurement (excitation wavelength at 485 nm, emission wavelength at 525 to 535 nm). Subsequently, 50 µL/well of agonist (final concentration 1 µM oleoyl-L-α-lysophosphatidic acid sodium salt (Sigma, L7260)) or vehicle (ultrapure water) was added, and fluorescence values were measured at 1-second intervals for 2 min. Finally, the output fluorescence counts were analyzed using GraphPad Prism 9.0 software log(inhibitor) vs. response--Variable slope (four parameters) equation to calculate IC50 values.
Table 1: Inhibitory activity data of compounds against LPAR1

Sequence of hLPAR1 (human lysophosphatidic acid receptor 1, Accession No.: NM_001401.4) (Q92633 whole entry): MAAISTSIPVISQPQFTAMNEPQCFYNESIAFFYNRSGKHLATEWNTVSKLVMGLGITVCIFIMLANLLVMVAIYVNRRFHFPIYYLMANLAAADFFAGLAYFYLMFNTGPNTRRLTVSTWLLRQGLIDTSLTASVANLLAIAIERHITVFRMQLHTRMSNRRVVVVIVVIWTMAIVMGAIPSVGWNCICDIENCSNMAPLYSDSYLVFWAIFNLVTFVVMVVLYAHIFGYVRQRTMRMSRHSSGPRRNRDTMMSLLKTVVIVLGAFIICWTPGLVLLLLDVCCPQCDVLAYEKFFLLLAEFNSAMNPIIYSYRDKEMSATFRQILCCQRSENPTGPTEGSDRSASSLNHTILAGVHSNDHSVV

| Structure (SMILES) | IC50 |
| --- | --- |
| Cc1nc(-c2nnn(C)c2NC(=O)OC(C)C2CC2(F)F)ccc1C#CC1(CC(=O)O)CC1 (stereo not shown) [compound 081] | 174 nM |
| Cc1nc(-c2nnn(C)c2CNC(=O)OCc2cc(F)cnc2Cl)ccc1C#CC1(CC(=O)O)CC1 [compound 117] | 79.4 nM |
| Cc1nc(-c2nnn(C)c2NC(=O)O[C@H](C)CC(C)C)ccc1C#CC1(CC(=O)O)CC1 [compound 220] | 15.5 nM |
| Cc1nc(-c2nnn(C)c2NC(=O)O[C@H](C)CC2CC2)ccc1C#CC1(CC(=O)O)CC1 [compound 302] | 24.7 nM |

same assay, conditions: Table 1; FLIPR method, CHO-K1 cells overexpressing hLPAR1; read-out: LPAR1 inhibitory activity IC50

| Structure (SMILES) | IC50 |
| --- | --- |
| Cc1nc(-c2nnn(C)c2NC(=O)O[C@H](C)c2ccccc2Cl)ccc1C#CC1(CC(=O)O)CC1 [compound 013, (R)-2-(1-((6-(5-(((1-(2-chlorophenyl)ethoxy)carbonyl)amino)-1-methyl-1H-1,2,3-triazol-4-yl)-2-methylpyridin-3-yl)ethynyl)cyclopropyl)acetic acid] | 2.6 nM |
| Cc1nc(-c2nnn(C)c2NC(=O)O[C@H](C)c2ccccc2F)ccc1C#CC1(CC(=O)O)CC1 [compound 014, (R)-2-(1-((6-(5-(((1-(2-fluorophenyl)ethoxy)carbonyl)amino)-1-methyl-1H-1,2,3-triazol-4-yl)-2-methylpyridin-3-yl)ethynyl)cyclopropyl)acetic acid] | 7.7 nM |
| Cc1nc(-c2nnn(C)c2COC(=O)N(C)C2CCCC2)ccc1C#CC1(CC(=O)O)CC1 [compound 018, 2-(1-((6-(5-(((cyclopentyl(methyl)carbamoyl)oxy)methyl)-1-methyl-1H-1,2,3-triazol-4-yl)-2-methylpyridin-3-yl)ethynyl)cyclopropyl)acetic acid] | 55.2 nM |
| Cc1nc(-c2nnn(C)c2NC(=O)O[C@H](C)c2ccccc2)ccc1C#CC1(CC(=O)O)CC1 [compound 022, (R)-2-(1-((2-methyl-6-(1-methyl-5-(((1-phenylethoxy)carbonyl)amino)-1H-1,2,3-triazol-4-yl)pyridin-3-yl)ethynyl)cyclopropyl)acetic acid] | 9.5 nM |
| Cc1nc(-c2nnn(C)c2NC(=O)OC(C)c2cc(F)cnc2Cl)ccc1C#CC1(CC(=O)O)CC1 (stereo not shown) [compound 023, 2-(1-((6-(5-(((1-(2-chloro-5-fluoropyridin-3-yl)ethoxy)carbonyl)amino)-1-methyl-1H-1,2,3-triazol-4-yl)-2-methylpyridin-3-yl)ethynyl)cyclopropyl)acetic acid] | 45.2 nM |
| Cc1nc(-c2nnn(C)c2COC(=O)N(C)CC2CCC2(F)F)ccc1C#CC1(CC(=O)O)CC1 (stereo not shown) [compound 026, 2-(1-((6-(5-(((((2,2-difluorocyclobutyl)methyl)(methyl)carbamoyl)oxy)methyl)-1-methyl-1H-1,2,3-triazol-4-yl)-2-methylpyridin-3-yl)ethynyl)cyclopropyl)acetic acid] | 52.7 nM |
| Cc1nc(-c2nnn(C)c2NC(=O)OC(C)C2CC(F)(F)C2)ccc1C#CC1(CC(=O)O)CC1 (stereo not shown) [compound 029, 2-(1-((6-(5-(((1-(3,3-difluorocyclobutyl)ethoxy)carbonyl)amino)-1-methyl-1H-1,2,3-triazol-4-yl)-2-methylpyridin-3-yl)ethynyl)cyclopropyl)acetic acid] | 219 nM |
| Cc1nc(-c2nnn(C)c2COC(=O)N(C)[C@H](C)C2CC2)ccc1C#CC1(CC(=O)O)CC1 [compound 030, (R)-2-(1-((6-(5-((((1-cyclopropylethyl)(methyl)carbamoyl)oxy)methyl)-1-methyl-1H-1,2,3-triazol-4-yl)-2-methylpyridin-3-yl)ethynyl)cyclopropyl)acetic acid] | 33.6 nM |
| Cc1nc(-c2nnn(C)c2COC(=O)N(C)CCCCF)ccc1C#CC1(CC(=O)O)CC1 [compound 034, 2-(1-((6-(5-((((4-fluorobutyl)(methyl)carbamoyl)oxy)methyl)-1-methyl-1H-1,2,3-triazol-4-yl)-2-methylpyridin-3-yl)ethynyl)cyclopropyl)acetic acid] | 52.7 nM |
| CCC(F)CN(C)C(=O)OCc1c(-c2ccc(C#CC3(CC(=O)O)CC3)c(C)n2)nnn1C (stereo not shown) [compound 036, 2-(1-((6-(5-((((2-fluorobutyl)(methyl)carbamoyl)oxy)methyl)-1-methyl-1H-1,2,3-triazol-4-yl)-2-methylpyridin-3-yl)ethynyl)cyclopropyl)acetic acid] | 103 nM |
| Cc1nc(-c2nnn(C)c2COC(=O)N(C)CCC(C)F)ccc1C#CC1(CC(=O)O)CC1 (stereo not shown) [compound 037, 2-(1-((6-(5-((((3-fluorobutyl)(methyl)carbamoyl)oxy)methyl)-1-methyl-1H-1,2,3-triazol-4-yl)-2-methylpyridin-3-yl)ethynyl)cyclopropyl)acetic acid] | 105 nM |
| Cc1nc(-c2nnn(C)c2COC(=O)N(C)CCC(C)(F)F)ccc1C#CC1(CC(=O)O)CC1 [compound 038, 2-(1-((6-(5-((((3,3-difluorobutyl)(methyl)carbamoyl)oxy)methyl)-1-methyl-1H-1,2,3-triazol-4-yl)-2-methylpyridin-3-yl)ethynyl)cyclopropyl)acetic acid] | 51.1 nM |
| Cc1nc(-c2nnn(C)c2COC(=O)N(C)CC2CCCC2)ccc1C#CC1(CC(=O)O)CC1 [compound 039, 2-(1-((6-(5-((((cyclopentylmethyl)(methyl)carbamoyl)oxy)methyl)-1-methyl-1H-1,2,3-triazol-4-yl)-2-methylpyridin-3-yl)ethynyl)cyclopropyl)acetic acid] | 4.2 nM |
| Cc1nc(-c2nnn(C)c2COC(=O)N(C)CC2CC2(F)F)ccc1C#CC1(CC(=O)O)CC1 (stereo not shown) [compound 068] | 129 nM |
| Cc1nc(-c2nnn(C)c2COC(=O)N(C)CC2CC2C)ccc1C#CC1(CC(=O)O)CC1 (stereo not shown) [compound 073] | 79.1 nM |
| CCC(F)(F)CN(C)C(=O)OCc1c(-c2ccc(C#CC3(CC(=O)O)CC3)c(C)n2)nnn1C [compound 082] | 157 nM |
| Cc1nc(-c2nnn(C)c2COC(=O)N(C)CC2CCC(F)(F)C2)ccc1C#CC1(CC(=O)O)CC1 (stereo not shown) [compound 094] | 30.1 nM |
| Cc1nc(-c2nnn(C)c2COC(=O)N(C)CC2CCCC2(F)F)ccc1C#CC1(CC(=O)O)CC1 (stereo not shown) [compound 095] | 39.9 nM |
| CCCCN(C)C(=O)OCc1c(-c2ccc(C#CC3(CC(=O)O)CC3)c(CC)n2)nnn1C [compound 100] | 44.3 nM |
| Cc1nc(-c2nnn(C)c2COc2nccc(C3CCC3)n2)ccc1C#CC1(CC(=O)O)CC1 [compound 194] | 42.5 nM |
| CCC(F)(F)[C@@H](C)OC(=O)Nc1c(-c2ccc(C#CC3(CC(=O)O)CC3)c(Cl)n2)nnn1C [compound 209, (R)-2-(1-((2-chloro-6-(5-((((3,3-difluoropentan-2-yl)oxy)carbonyl)amino)-1-methyl-1H-1,2,3-triazol-4-yl)pyridin-3-yl)ethynyl)cyclopropyl)acetic acid] | 12.7 nM |
| Cc1nc(-c2nnn(C)c2COC(=O)N(C)C(C)C2CCC2)ccc1C#CC1(CC(=O)O)CC1 (stereo not shown) [compound 211, 2-(1-((6-(5-((((1-cyclobutylethyl)(methyl)carbamoyl)oxy)methyl)-1-methyl-1H-1,2,3-triazol-4-yl)-2-methylpyridin-3-yl)ethynyl)cyclopropyl)acetic acid] | 13.8 nM |
| CCCc1ccnc(OCc2c(-c3ccc(C#CC4(CC(=O)O)CC4)c(C)n3)nnn2C)n1 [compound 217, 2-(1-((2-methyl-6-(1-methyl-5-(((4-propylpyrimidin-2-yl)oxy)methyl)-1H-1,2,3-triazol-4-yl)pyridin-3-yl)ethynyl)cyclopropyl)acetic acid] | 26.6 nM |
| CN(CCCCF)C(=O)OCc1c(-c2ccc(C#CC3(CC(=O)O)CC3)c(C3CC3)n2)nnn1C [compound 218, 2-(1-((2-cyclopropyl-6-(5-((((4-fluorobutyl)(methyl)carbamoyl)oxy)methyl)-1-methyl-1H-1,2,3-triazol-4-yl)pyridin-3-yl)ethynyl)cyclopropyl)acetic acid] | 90.2 nM |
| Cc1nc(-c2nnn(C)c2NC(=O)O[C@H](C)c2ccccc2)ccc1C#C[C@@H]1CC(F)(F)C[C@H]1C(=O)O [compound 226] | 0.4 nM |
| CCc1nc(-c2nnn(C)c2COC(=O)N(C)CCCCF)ccc1C#CC1(CC(=O)O)CC1 [compound 230] | 59.9 nM |
| Cc1nc(-c2nnn(C)c2NC(=O)O[C@H](C)CC(C)(F)F)ccc1C#C[C@@H]1CC(F)(F)C[C@H]1C(=O)O [compound 247] | 10.2 nM |
| CCC(F)(F)C[C@@H](C)OC(=O)Nc1c(-c2ccc(C#CC3(CC(=O)O)CC3)c(C)n2)nnn1C [compound 264] | 47.3 nM |
| Cc1nc(-c2nnn(C)c2NC(=O)O[C@H](C)CC(C)(C)F)ccc1C#C[C@@H]1CC(F)(F)C[C@H]1C(=O)O [compound 273] | 14.9 nM |

same assay, conditions: read-out: LPAR1 inhibitory activity IC50; Table 1; FLIPR method, CHO-K1 cells overexpressing hLPAR1

| Structure (SMILES) | IC50 |
| --- | --- |
| Cc1nc(-c2nnn(C)c2COC(=O)N(C)CC2CCC2)ccc1C#CC1(CC(=O)O)CC1 [compound 017] | 42.8 nM |
